Series [1] is described as follows: Alcohol-challenge test for relapse in a patient treated with baclofen for alcohol dependence. It counts as in vivo, human. As to the method: For alcoholism, vulnerability is tested with an alcohol-challenge test of about three to five standard drinks. The number of drinks can and should be varied (typically lower) if any adverse signs or cravings appear in the patient. […] If craving occurs, the patient is not protected against relapse and the SSD dosage needs to be increased and the test performed again until craving stops occurring altogether upon renewed alcohol-challenge (s). Once that state is achieved, the patient is protected against relapse.
The susceptibility of a patient to relapse while being treated for alcohol dependence using baclofen was determined. The patient (themself a physician) had been symptom-free for more than one year and was on a baclofen dose of 120 mg/day (40 mg, three times per day).
First challenge: During a social gathering, the patient had 3 standard drinks of alcohol (gin and tonic) over a few hours and evaluated the effects in the presence of a physician witness. The first drink was consumed slowly by sipping over some 40 minutes, without the slightest urge to drink it rapidly (and which had previously been the only way the patient would drink, e.g., typically consuming the drink within 5 minutes). A second drink was ordered, consumed and started to produce a pleasant mild euphoria. A third drink was begun but the patient was not able to finish it, something that would have been impossible during untreated alcohol dependence. At the time, the patient felt no desire to finish the third drink, felt a bit high and maintained the ability to chat. After a night's sleep, the patient woke up without any feelings of remorse or fear. […] The following hours were unremarkable. No alcohol thoughts or dreams occurred in the following weeks.
Second challenge: The patient repeated the experiment approximately one month later with an even stronger challenge: five drinks. Again in the presence of another physician, the patient succeeded in having 5 drinks of vodka and tonic over 6 hours. […] Accordingly the daily dosage of baclofen was increased from 40 mg three times daily, to 60 mg three times daily (180 mg/day). […] Accordingly, symptom suppression is dose-dependent and may require higher dosage when challenge is important.
Third challenge: To test if a higher than routine dose of baclofen can prevent cravings, even in the presence of a massive amount of alcohol such as is ingested during heavy drinking or during active relapse, the patient's baclofen dose was […] 24 hours prior to consuming an alcoholic beverage. The patient took 30 mg baclofen in the morning, a second such dose 8 hours later and a few hours later (in the evening) took dose of 80 mg baclofen at the same time as beginning to drink large amounts of alcohol as could reasonably tolerated, expecting that to be about a fifth of Scotch. The alcohol was consumed over several hours and the next day, actual consumption was measured to be four fifths of the bottle. […] The patient is able to have an occasional drink in a non-dependent fashion.

For series [2] the following is noted: cited from earlier work.
The conditions of series [3]: cited from earlier work. This is another data set of the same source.

Molecules are shown by their SMILES.

As for `NCC(CC(=O)O)c1ccc(Cl)cc1` (centres unmarked) [baclofen], the “craving after third challenge” value in series [1] (30 mg + 30 mg + 80 mg on the day, four fifths of a bottle of Scotch over several hours, next day) is “no craving and no desire whatsoever to drink liquor”. Further, the “craving and symptoms before challenge” value in series [1] (120 mg/day (40 mg three times per day), symptom-free for more than one year) is “completely suppressed craving and symptoms”. Further, the “craving during follow-up after third challenge” value in series [1] (180 mg/day for six days, then maintenance dose of 120 mg/day) was “has not experienced any craving for more than one year”. Moreover, in series [1] (3 standard drinks (gin and tonic) over a few hours, 120 mg/day, after a night's sleep), the “craving after first challenge” value is on record as “no desire or thought to drink whatsoever”. For the same molecule, the “craving after second challenge” value in series [1] (5 drinks of vodka and tonic over 6 hours, 120 mg/day, next day in the afternoon) is listed as “a bout of craving was experienced”. Further, the “craving on the increased regimen” value in series [1] (second challenge, 60 mg three times daily (180 mg/day)) is given as “craving was again completely suppressed”. Also, in series [1] (second challenge, administration of 40 mg, craving reappeared several hours later), the “effect of an additional dose on the bout of craving” value is “suppressed the craving within the hour”. In addition, the “craving after dose reduction” value in series [1] (second challenge, after six days at 180 mg/day progressively reduced to 120 mg/day) is given as “cravings did not reoccur”. Moreover, in series [2] (seven individual patients (Geneva) and one hundred patients (Vienna)), the “complete and prolonged suppression of symptoms and consequences of AD” value is listed as “successfully reproduced”. In addition, in series [2] (some patients treated in Switzerland, even at high-dose baclofen), the relapse result was “did relapse”. For the same molecule, the “dosage sufficient for craving not to reappear” value in series [3] (after progressive reduction from SSD, over the complete nine months of the published study) is 120 mg/day. Further, the “coexistent (comorbid preexisting) anxiety” value in series [3] (at SSD) is “greatly attenuated”. Besides, the side effect result in series [3] (at SSD, reduced by lowering the dosage to 120 mg/day) is “somnolence”. For the same molecule, in series [3] (oral, gradual dose-escalation, one patient), the “dose needed for craving to completely and permanently disappear (symptom-suppressing dose, SSD)” value is recorded as 270 mg/day.
